According to patent US5659048A, “Chiral [[(2-bromoethyl)-amino]methyl]-2-nitro-1H-imidazol-1-ethanol and related compounds” (priority 1995, dated 1997):

Assays:
B6 C3 F1 mice = assay: Mouse Toxicity Studies (14-day lethality, LD10 by probit analysis); type: in vivo
Experimental: B6 C3 F1 mice were treated with varying doses of test agent by either intraperitoneal, intravenous, or oral administration. […] The maximum tolerated dose was established as the dose equal to or less than the LD10 as determined from a probit analysis.

[1] = Emesis Studies in beagle dogs; type: in vivo; conditions: dog, in vivo; IV, 10-minute infusion, 6-hour postdosing scoring; threshold dose at which 50% of animals exhibited emetic response; read-out: Emesis (Dogs) ED50
Experimental: (§1) Beagle dogs (approximately 10 kg body weight) were treated intravenously with a 10-minute infusion of 20 mL of the test compound prepared in sodium lactate buffer, pH 4.0. Dogs were scored over a 6-hour postdosing period for both the number of emetic episodes and the relative volume. Antiemetic therapy consisted of a 5-minute infusion of ondansetron, administered at a dose of 0.3 mg/kg 30 minutes prior to treatment with the nitroimidazole.

KHT fibrosarcoma = assay: Radiosensitizing efficacy in mice: excision assay, clonogenic survival of KHT fibrosarcomas; type: in vivo, B6 C3 F1 mice; conditions: 250 mg/kg IP, 30 min before 10 Gray whole body irradiation
Experimental: Clonogenic survival of KHT fibrosarcomas was determined in assays employing B6 C3 F1 mice. Tumors were implanted subcutaneously by trocar. Nine days postimplantation, when tumors ranged from 200 to 400 mg in size, mice were treated IP with a range of drug doses including the maximum tolerated dose of the test agent. Thirty minutes later mice received whole body irradiation at a dose of 10 Gray, delivered at a rate of 2 Gray/minute with a 320 kV x-ray machine. Twenty-four hours after treatment, animals were sacrificed, and tumors were excised. Tumors were enzymatically digested to give single cell suspensions prior to plating for cell survival by clonogenic assay.

SCC7 carcinoma = assay: Radiosensitizing efficacy in mice: tumor growth delay, SCC7 carcinoma; type: in vivo, B6 C3 F1 mice; conditions: IP at maximum tolerated dose every 12 hours, 30 min before 2.5 Gray, 8 fractions
Experimental: Tumor growth delay was assessed in B6 C3 F1 mice implanted IM with 5×10^5 SCC7 carcinoma tumor cells. On Days 10 through 13 post tumor implantation, mice were treated every 12 hours with the maximum tolerated dose of test agent (determined from a 10-day multiple treatment schedule). Thirty minutes later, mice were irradiated at the tumor site with a 2.5 Gray dose of x-rays. Upon completion of this 8 fraction protocol, tumor growth was monitored daily.

beagle dogs = assay: Emesis Studies in beagle dogs; type: in vivo; conditions: dogs, IV; result in words
Experimental: as §1

Row | Structure (SMILES) | LD10 (B6 C3 F1 mice; IP) | LD10 (B6 C3 F1 mice; IV) | LD10 (B6 C3 F1 mice; PO) | TD50 at 6 h [1] | Excision (250 mg/kg), % control (KHT fibrosarcoma) | Growth Delay Fold Enhancement (SCC7 carcinoma) | Emesis relative to (S) isomer or racemic mixture (beagle dogs)
1 | Br.O=[N+]([O-])c1nccn1C[C@@H](O)CNCCBr [(S), (S)-(-)-α-[[(2-Bromoethyl)amino]methyl]-2-nitro-1H-imidazole-1-ethanol, monohydrobromide] | 850 mg/kg | 900 mg/kg | 1100 mg/kg | 4 mg/kg | 11 % control | 1.8 Fold | –
2 | Br.O=[N+]([O-])c1nccn1C[C@H](O)CNCCBr [(R), (R)-(+)-α-[[(2-Bromoethyl)amino]methyl]-2-nitro-1H-imidazole-1-ethanol, monohydrobromide] | 850 mg/kg | 900 mg/kg | 1100 mg/kg | 12 mg/kg | 11 % control | 2.1 Fold | significantly less emesis than the (S) isomer or the mixture
